Reference: patent US9427433B2, “Methods and compositions for enhancing fertility and/or inhibiting pregnancy failure and restoring glucose tolerance” (Queen's University at Kingston, priority 2011, dated 2016)

Columns and labels:
IFN-γ mRNA = assay: Decidual/placental IFN-γ mRNA levels; assay type: in vivo, mouse; conditions: mid- to late pregnancy; NOD mice, 1 or 0.1 mg/kg q2d for three weeks with or without 10 mg/kg loading dose
Protocol: In these studies, pregnancy progression and the glycemic control of mice treated with tacrolimus were examined. In an initial set of experiments, a loading dose of 10 mg/kg was initially administered to mice at the pre-diabetic stage followed by a maintenance dose of 1 or 0.1 mg/kg every other day (q2d) for three weeks after the last injection of which animals were allowed to mate and get pregnant. In an additional set of experiments mice were injected every other day with either 1 or 0.1 mg/kg dose for three weeks during the pre-diabetic stage and after the last injection of which mice were mated and examined for the progress of their pregnancy. Ultrasonic, vascular resistance index measurements, morphologic analyses were conducted on immunosuppressed and control NOD dams and their gestational uterine samples throughout pregnancy. Uterine, decidual and placental IFN-γ mRNA levels were also measured. Immunosuppressed NOD mice achieved and maintained normal glucose homeostasis with normal pregnancy pattern and a higher rate of viably implanted embryos and fetuses having normal phenotypic appearance. Placentae of NOD mice treated with tacrolimus were more deciduomatous, and the integrity of the stem, anchoring and branching placental villi were maintained. […]

[1] = tested on: pregnant diabetic NOD mice; assay: Pulse Wave Doppler of uterine arterial blood flow (resistance index); assay type: in vivo, mouse
Protocol: Uterine artery resistive index (RI) was calculated for each vessel according to the equation: RI=(Peak Systolic Velocity−Peak Diastolic Velocity)/Peak Systolic Velocity to assess maternal hemodynamic characteristics of tacrolimus-treated versus the normoglycemic and the vehicle-treated diabetic NOD mice.
Following the procedure described by Mu and Adamson (Am. J. Physiol. Heart Circ. Physiol. 291: H1421-H1428) for comparing patterns of blood flow hemodynamics in the uterine artery, transcutaneous ultrasound biomicroscopy and Doppler waveform recording were collected and analyzed from tacrolimus treated versus the diabetic and obese mice and their normoglycemic control cohort of mated pregnant mice using a microultrasound biomicroscope (Vivo770, Visual Sonic Inc., Toronto, Ontario, Canada) and a 30-40 MHz Real-Time Micro Visualization scanhead transducer operating at two frames per second (RMV704 or 708, VisualSonics Inc). […] Maternal heart and respiration rates were recorded via a physiological controller unit connected to the mechanical platform. […] Systolic and diastolic flow parameters were assessed in the selected point along the course of the uterine artery at 3-5 min intervals and the resistance index (RI=[PSV−EDV]/PSV) was calculated when EDV>0 to measure the pulsatility of arterial blood velocity waveforms.

[2] = tested on: diabetic and obese mice fed with 60% fat; assay: Serum lipid profile; assay type: in vivo, mouse; conditions: 60% fat for 12 weeks; day 4.5 post-coitum
Text: FIGS. 22A to 22H show results of tacrolimus restoring normal lipid profile in all treated diabetic and obese mice fed with 60% fat for 12 weeks. Normal serum levels of Triglycerides (FIG. 22A and FIG. 22B), Total Cholesterol (FIG. 22C and FIG. 22D), High-density Lipoprotein (HDL) Cholesterol (FIG. 22E and FIG. 22F) and lipid Ratio representing the overall lipid profile (FIG. 22G and FIG. 22H) were obtained after the administration of tacrolimus to the diabetic and obese mice despite their continued high fat calorie intake. Blood samples were taken at day 4.5 post-coitum and values on the Y-axis are plotted as power of 10.

[3] = tested on: patients with type I diabetes; conditions: 0.15 mg/kg BID; cited from earlier work
NOD and NZO mice = assay: Implantation rate and embryonic/fetal resorption after tacrolimus; assay type: in vivo, mouse; conditions: short-term administration
Protocol: Fifty four NOD mice at the prediabetic and early diabetic stages were carefully selected to match the criteria of being 2 standard deviation heavier in body weight than their age-matched normoglycemic control mice and having blood glucose value of >14.9 mM/1 during the glucose tolerance test. The selected mice were 9 weeks old and were treated with 0.1 mg/kg q2d of tacrolimus (Prograf (5 mg/ml), Astellas) subcutaneously administered in 0.2 ml saline for three weeks after which animals were mated to males of the same strain (See FIG. 1). Vehicle (0.2 ml saline, s.q.) treated hyperglycemic NOD female mice were allowed two weeks in diabetes before they were mated to males of the same strain. […]
Twenty NZO and DIO/B6 female mice were maintained on a high fat diet consisted of 60% kcal fat, 20% kcal protein and 20% kcal carbohydrate, with a total energy mass of 5.24 kcal/gm (D12492, Research Diets Inc.; Cedarlane Laboratories, Burlington, Ontario, Canada) starting at 7 weeks of age and maintained on the diet for a total of 12 weeks of study period during which their weekly body weight changes and non-fasting blood glucose values were recorded. […]

pregnant diabetic mice = assay: Fetal weight and intrauterine growth restriction (IUGR); assay type: in vivo, mouse
Text: FIGS. 14A and 14B show representative fetal weights (FIG. 14A) and percent of dams with intrauterine growth restricted (IUGR) pups (FIG. 14B) as measured on day 18.5 of pregnancy in the tacrolimus-treated diabetic mice versus vehicle-treated diabetic dams and those normoglycemic control cohorts. Whiskers in FIG. 14A represent the 10th and 90th percentiles of fetal body weight. Pups with weights below the 10th percentile of the normoglycemic control were considered intrauterine growth restricted (IUGR) as indicated by the shaded region. […] Numbers in brackets in FIG. 14A represents number of pups examined. “n” denotes number of dams. p<0.05.

[4] = humans, single oral dose of 0.5 mg; cited from earlier work

C=CC[C@@H]1/C=C(\C)C[C@H](C)C[C@H](OC)[C@H]2O[C@@](O)(C(=O)C(=O)N3CCCC[C@H]3C(=O)O[C@H](/C(C)=C/[C@@H]3CC[C@@H](O)[C@H](OC)C3)[C@H](C)[C@@H](O)CC1=O)[C@H](C)C[C@@H]2OC [tacrolimus]
decidual/placental IFN-γ mRNA (IFN-γ mRNA): Lower normal levels of decidual/placental IFN-γ mRNA | treated pregnant diabetic mice with sustained decidual arteriolar flow velocity and normalized vascular resistance to uterine blood flow ([1]; Doppler waveform, p<0.05 vs vehicle-treated diabetic mice): 88% | uterine arterial hemodynamics ([1]; throughout pregnancy): improved uterine arterial hemodynamics | lipid profile (triglycerides, total cholesterol, HDL cholesterol, lipid ratio) [2]: restored normal lipid profile | outcome of clinical study in type I diabetes [3]: inconclusive | rates of embryonic and fetal resorption (NOD and NZO mice): reduced rates of embryonic and fetal resorption | implantation rate (NOD and NZO mice; pregnancy days 4.5 and 6.5): enhanced implantation rate | treated pregnant diabetic mice in which IUGR development was inhibited (pregnant diabetic mice; 0.1 mg/kg s.c. every other day, weeks 9-11 of age): 88% | fetal body weight (pregnant diabetic mice; day 18.5 of pregnancy, 0.1 mg/kg s.c. every other day, weeks 9-11 of age, p<0.05): significantly improved fetal body weight | pups born to diabetic dams rescued from inflammatory-mediated growth restriction (pregnant diabetic mice; short term administration): 88% | maximal blood concentration [4]: 4.6 ng/mL
